#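 Dose response: 5 concentrations. Exposure: 48 h. Format: 96-well plates. Endpoint: linear interpolation; highest concentration if not reached. GI50 = concentration required for 50% inhibition of growth. TGI is the concentration that stops growth completely.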
# Columns and labels:
# Test in all cases: NCI-60 cell line screen, 48 h
# 786-0 renal = tested on: 786-0 renal
# A498 renal = tested on: A498 renal
# A549 NSCLC = tested on: A549 NSCLC
# ACHN renal = tested on: ACHN renal
# BT-549 breast = tested on: BT-549 breast
# CAKI-1 renal = tested on: CAKI-1 renal
# CCRF-CEM leukemia = tested on: CCRF-CEM leukemia
# COLO 205 colon = tested on: COLO 205 colon
# DU-145 prostate = tested on: DU-145 prostate
# EKVX NSCLC = tested on: EKVX NSCLC
# HCC-2998 colon = tested on: HCC-2998 colon
# HCT-116 colon = tested on: HCT-116 colon
# HCT-15 colon = tested on: HCT-15 colon
# HOP-62 NSCLC = tested on: HOP-62 NSCLC
# HOP-92 NSCLC = tested on: HOP-92 NSCLC
# HS 578T breast = tested on: HS 578T breast
# HT29 colon = tested on: HT29 colon
# IGROV1 ovarian = tested on: IGROV1 ovarian
# K-562 leukemia = tested on: K-562 leukemia
# KM12 colon = tested on: KM12 colon
# LOX IMVI melanoma = tested on: LOX IMVI melanoma
# M14 melanoma = tested on: M14 melanoma
# MCF7 breast = tested on: MCF7 breast
# MDA-MB-231 breast = tested on: MDA-MB-231 breast
# MDA-MB-435 = tested on: MDA-MB-435
# MOLT-4 leukemia = tested on: MOLT-4 leukemia
# NCI-H226 lung = tested on: NCI-H226 lung
# NCI-H23 lung = tested on: NCI-H23 lung
# NCI-H460 lung = tested on: NCI-H460 lung
# NCI-H522 lung = tested on: NCI-H522 lung
# NCI/ADR-RES ovarian = tested on: NCI/ADR-RES ovarian
# OVCAR-3 ovarian = tested on: OVCAR-3 ovarian
# OVCAR-4 ovarian = tested on: OVCAR-4 ovarian
# OVCAR-5 ovarian = tested on: OVCAR-5 ovarian
# OVCAR-8 ovarian = tested on: OVCAR-8 ovarian
# PC-3 prostate = tested on: PC-3 prostate
# RPMI-8226 leukemia = tested on: RPMI-8226 leukemia
# RXF 393 renal = tested on: RXF 393 renal
# SF-268 CNS = tested on: SF-268 CNS
# SF-295 CNS = tested on: SF-295 CNS
# SF-539 CNS = tested on: SF-539 CNS
# SK-MEL-2 melanoma = tested on: SK-MEL-2 melanoma
# SK-MEL-28 melanoma = tested on: SK-MEL-28 melanoma
# SK-MEL-5 melanoma = tested on: SK-MEL-5 melanoma
# SK-OV-3 ovarian = tested on: SK-OV-3 ovarian
# SN12C renal = tested on: SN12C renal
# SNB-19 CNS = tested on: SNB-19 CNS
# SNB-75 CNS = tested on: SNB-75 CNS
# SR leukemia = tested on: SR leukemia
# SW-620 colon = tested on: SW-620 colon
# T-47D breast = tested on: T-47D breast
# TK-10 renal = tested on: TK-10 renal
# U251 CNS = tested on: U251 CNS
# UACC-257 melanoma = tested on: UACC-257 melanoma
# UACC-62 melanoma = tested on: UACC-62 melanoma
# UO-31 renal = tested on: UO-31 renal
structure (smiles),measurement,setting,value
O=c1[nH]nc(-c2nn(-c3ccc(Cl)cc3)cc2O)o1,GI50,786-0 renal,519 nM
same,TGI,786-0 renal,36500 nM
same,GI50,A498 renal,87 nM
same,TGI,A498 renal,464 nM
same,GI50,A549 NSCLC,91.3 nM
same,TGI,A549 NSCLC,> 100000 nM
same,GI50,ACHN renal,142 nM
same,TGI,ACHN renal,> 100000 nM
same,GI50,BT-549 breast,19.1 nM
same,TGI,BT-549 breast,219 nM
same,GI50,CAKI-1 renal,156 nM
same,TGI,CAKI-1 renal,13000 nM
same,GI50,CCRF-CEM leukemia,303 nM
same,TGI,CCRF-CEM leukemia,> 62100 nM
same,GI50,COLO 205 colon,3250 nM
same,TGI,COLO 205 colon,> 100000 nM
same,GI50,DU-145 prostate,56.2 nM
same,TGI,DU-145 prostate,1450 nM
same,GI50,EKVX NSCLC,92.5 nM
same,TGI,EKVX NSCLC,904 nM
same,GI50,HCC-2998 colon,238 nM
same,TGI,HCC-2998 colon,3500 nM
same,GI50,HCT-116 colon,71.8 nM
same,TGI,HCT-116 colon,927 nM
same,GI50,HCT-15 colon,152 nM
same,TGI,HCT-15 colon,> 100000 nM
same,GI50,HOP-62 NSCLC,99 nM
same,TGI,HOP-62 NSCLC,36000 nM
same,GI50,HOP-92 NSCLC,280 nM
same,GI50,HS 578T breast,61.9 nM
same,TGI,HS 578T breast,3160 nM
same,GI50,HT29 colon,2020 nM
same,TGI,HT29 colon,> 100000 nM
same,GI50,IGROV1 ovarian,117 nM
same,TGI,IGROV1 ovarian,> 100000 nM
same,GI50,K-562 leukemia,46 nM
same,GI50,KM12 colon,134 nM
same,GI50,LOX IMVI melanoma,194 nM
same,TGI,LOX IMVI melanoma,> 43300 nM
same,GI50,M14 melanoma,132 nM
same,TGI,M14 melanoma,13000 nM
same,GI50,MCF7 breast,340 nM
same,TGI,MCF7 breast,> 100000 nM
same,GI50,MDA-MB-231 breast,4560 nM
same,TGI,MDA-MB-231 breast,> 50400 nM
same,GI50,MDA-MB-435,20.5 nM
same,GI50,MOLT-4 leukemia,53.7 nM
same,TGI,MOLT-4 leukemia,944 nM
same,GI50,NCI-H226 lung,133 nM
same,TGI,NCI-H226 lung,3730 nM
same,GI50,NCI-H23 lung,108 nM
same,TGI,NCI-H23 lung,673 nM
same,GI50,NCI-H460 lung,42.9 nM
same,TGI,NCI-H460 lung,> 100000 nM
same,GI50,NCI-H522 lung,696 nM
same,TGI,NCI-H522 lung,> 100000 nM
same,GI50,NCI/ADR-RES ovarian,121 nM
same,TGI,NCI/ADR-RES ovarian,2750 nM
same,GI50,OVCAR-3 ovarian,472 nM
same,TGI,OVCAR-3 ovarian,12500 nM
same,TGI,OVCAR-4 ovarian,> 100000 nM
same,GI50,OVCAR-5 ovarian,499 nM
same,TGI,OVCAR-5 ovarian,> 100000 nM
same,GI50,OVCAR-8 ovarian,317 nM
same,TGI,OVCAR-8 ovarian,> 100000 nM
same,GI50,PC-3 prostate,401 nM
same,TGI,PC-3 prostate,> 100000 nM
same,GI50,RPMI-8226 leukemia,172 nM
same,GI50,RXF 393 renal,741 nM
same,TGI,RXF 393 renal,> 72400 nM
same,GI50,SF-268 CNS,117 nM
same,TGI,SF-268 CNS,> 100000 nM
same,GI50,SF-295 CNS,51.8 nM
same,TGI,SF-295 CNS,> 100000 nM
same,GI50,SF-539 CNS,74.1 nM
same,TGI,SF-539 CNS,2240 nM
same,GI50,SK-MEL-2 melanoma,536 nM
same,TGI,SK-MEL-2 melanoma,46200 nM
same,GI50,SK-MEL-28 melanoma,25100 nM
same,TGI,SK-MEL-28 melanoma,> 100000 nM
same,GI50,SK-MEL-5 melanoma,201 nM
same,TGI,SK-MEL-5 melanoma,1440 nM
same,GI50,SK-OV-3 ovarian,385 nM
same,TGI,SK-OV-3 ovarian,> 100000 nM
same,GI50,SN12C renal,119 nM
same,TGI,SN12C renal,5770 nM
same,GI50,SNB-19 CNS,187 nM
same,TGI,SNB-19 CNS,> 100000 nM
same,GI50,SNB-75 CNS,227 nM
same,TGI,SNB-75 CNS,> 100000 nM
same,GI50,SR leukemia,33.4 nM
same,TGI,SR leukemia,266 nM
same,GI50,SW-620 colon,470 nM
same,TGI,SW-620 colon,> 100000 nM
same,GI50,T-47D breast,221 nM
same,TGI,T-47D breast,> 100000 nM
same,GI50,TK-10 renal,37.6 nM
same,TGI,TK-10 renal,276 nM
same,GI50,U251 CNS,25 nM
same,TGI,U251 CNS,> 100000 nM
same,GI50,UACC-257 melanoma,610 nM
same,TGI,UACC-257 melanoma,> 100000 nM
same,GI50,UACC-62 melanoma,166 nM
same,TGI,UACC-62 melanoma,2820 nM
same,GI50,UO-31 renal,331 nM
same,TGI,UO-31 renal,> 34300 nM
